In paper PMC6196658, “Activity of Thioallyl Compounds From Garlic Against Giardia duodenalis Trophozoites and in Experimental Giardiasis” (Frontiers in Cellular and Infection Microbiology, 2018):
Values after ≈ are worked out from the molar mass of the structure shown. Values joined by “and” are separate entries in the source; they are usually repeats but may differ in a detail not shown here. Equal values may be shown once.

Columns and labels:
[1] = test system: Babesia microti; set-up: method as in Salama et al., 2014; details: mice, 30 mg/kg orally for 5 days; ref Salama et al., 2014; cited from earlier work
[2] = test system: G. duodenalis trophozoites; experiment: Annexin V-PI flow cytometry (apoptosis/necrosis); assay type: cell-based, Giardia duodenalis; details: 0.6 mM (MLC), 24 h
Description: (§1) The identification and quantitative determinations of trophozoites were carried out as follows: (a) apoptosis or necrosis were determined using anti-annexin V-fluorescein isothiocyanate (FITC) antibodies or PI as respective markers, (b) oxidative stress was determined by formation of reactive oxygen species (ROS) with the fluorescent ROS-complexing agent 5-(and 6)-carboxy 2′7′-dichlorodihydrofluorescein diacetate (H2DCFDA), and (c) determination of trophozoites cell cycle stages (G1, S, G2, and G2/M) after exposure to ALC or to a control drug (albendazole, ABZ) was carried out as previously described (Martínez-Espinosa et al., [2015]). In all these assays 20,000 cells per sample were recorded.

[3] = test system: G. duodenalis trophozoites; experiment: Electron microscopy of exposed trophozoites; assay type: cell-based, Giardia duodenalis
Description: Trophozoites were exposed to TACs in two ways: under long (24 h, standard toxicity) and short (3 h, acute toxicity) incubations at 37°C using concentrations corresponding to the experimental MLC (as determined at 24 h) and twofold the MLC, respectively. For scanning electron microscopy, PBS-washed parasites were fixed with 2.5% glutaraldehyde in 0.1 M sodium cacodylate buffer, pH 7.2, dehydrated under increasing concentrations of ethanol, critical-point dried using a Samdri apparatus, gold coated in an ion sputtering device (JEOL-JFC-1100), and examined with a JEOL 35-C scanning electron microscope. In transmission electron microscopy (TEM) studies, washed cells were fixed with 2.5% glutaraldehyde and post-fixed with 1% osmium tetroxide in cacodylate buffer. Following sequential dehydration in ethanol, samples were embedded with epoxy resins.

[4] = test system: G. duodenalis trophozoites; experiment: ROS formation, H2DCFDA flow cytometry; assay type: cell-based, Giardia duodenalis; details: 1.2 mM (twice MLC), 24 h
Description: as §1

[5] = test system: G. duodenalis trophozoites; experiment: In vitro susceptibility, trypan blue exclusion (TBE); assay type: cell-based, Giardia duodenalis (WB strain); details: 24 h exposure
Description: G. duodenalis trophozoites from the WB strain (ATCC # 30957) were axenically cultured in modified Diamond's TYI-S-33 medium (Keister, [1983]) without bile at 37°C. Cell harvests were carried out by chilling flasks at the log phase of growth reached after 72–96 h routine subcultures. Detached trophozoites were either directly counted in a haemocytometer or washed 3 times with phosphate buffer saline (PBS) prior to counting and the cell number was adjusted as required in the assays.
When complete TYI-S-33 medium (final cysteine concentration = 12.4 mM) was used, it was no older than 10 days to avoid cysteine oxidation. […] Parasites were harvested and counted and trophozoite's viability was determined by physiological methods to determine the growth capacity of trophozoites after drug exposure (subculture in liquid medium SCLM)] or trophozoite and membrane integrity [direct cell count (DCC) and trypan blue exclusion (TBE), respectively]. […] All these protocols have been described elsewhere (Argüello-García et al., [2004]) except that DCC values were calculated from total cell numbers of compound-exposed trophozoites divided by the initial trophozoites' inoculum (1 × 10^6) and TBE was performed by incubating PBS-washed parasites in a trypan blue solution (0.4% [w/v] final concentration) for 5 min at room temperature followed by microscopic count of “stained” (non-viable) parasites. […]

[6] = rat, no reference given; cited from earlier work
[7] = test system: Spironucleus vortens; set-up: method as in Millet et al., 2011; details: ref Millet et al., 2011; cited from earlier work
[8] = Tolerability and lethality in gerbils
Description: Eighty male Mongolian gerbils (M. unguiculatus) 6–10 weeks old, weighted 45–60 g and sentinel-checked gerbils free of intestinal parasites were kept in individual cages and distributed in 12 groups of 6 animals per treatment and experimental infections were performed as described elsewhere (Argüello-García and Ortega-Pierres, [1997]). In brief, animals were inoculated intragastrically with 1 × 10^6 G. duodenalis trophozoites in 500 μl sterile PBS per os using gavage under ether anesthesia. Control animals received 500 μl sterile PBS each. […] As additional control, one group of animals received MTZ (38.4 mg/kg at single or double dose). […] Treatment efficacy was evaluated by determining the presence or absence of trophozoites in intestinal contents of control and treated gerbils at day 13 post-infection. […] Supernatant was collected and centrifuged at 750 × g for 10 min at 4°C, cell pellet was resuspended in 1 mL PBS and trophozoites were counted using a haemocytometer. Gerbils were scored as cured if no trophozoites were recovered from infected animals.

[9] = test system: G. duodenalis trophozoites; experiment: In vitro susceptibility, MTT reduction; assay type: cell-based, Giardia duodenalis (WB strain)

Question: With `C=CCS[S+]([O-])CC=C` (stereo not shown) [ALC, diallyl thiosulfinate] as the compound, how does the parasitemia [1] read?
Answer: significantly reduced parasitemia

Question: And the “R4 cells positive for early apoptosis (annexin V+)” value [2]?
Answer: 10.2%

Question: And the “surface damage by scanning electron microscopy” value ([3]; 600 μM, 24 h (standard toxicity))?
Answer: membrane blebbing process with profuse holes

Question: And the “intracellular damage by transmission electron microscopy” value ([3]; standard (600 μM 24 h) or acute (1.2 mM 3 h) protocol)?
Answer: complete loss of electron density of the intracellular elements and the integrity of plasma membrane

Question: And the “cells positive for ROS (total)” value [4]?
Answer: 0.75%

Question: And the “MLC (mM) ±SD” value [5]?
Answer: 1.12 mM and 1.127 ± 0.05 mM

Question: And the IC50 ([5]; Giardia duodenalis)?
Answer: 405 ± 38 µM

Question: What about the oral lethality [6] of the same compound?
Answer: 980 mg/kg

Question: And the IC50 [7]?
Answer: > 1120 µM

Question: And the “irritation in intestinal epithelium” value ([8]; 276 mg/kg single dose, treated non-infected animals, surgical examination)?
Answer: noticeable irritation in intestinal epithelium

Question: What about the lethal dose ([8]; intragastric route, gerbils) of the same compound?
Answer: > 400 mg/kg

Question: And the IC50 ([9]; Giardia duodenalis, MTT assay, value as quoted in Discussion)?
Answer: 686 µM

Question: What about the “MLC (mM) ±SD” value ([9]; MTT, 24 h exposure) of the same compound?
Answer: 1.490 ± 0.025 mM (≈ 242 µg/mL)
